Test results as given in patent US7767789B2, “Truncated proteins as cancer markers” (University Hopitals of Cleveland, priority 2005, dated 2010).

Columns and labels:
[1] = test system: HEK-293 cells (wild-type, expressing P2X7 or P2X7-j); assay: Cell-number index of HEK-293 cells grown in culture; assay type: cell-based, human; settings: 100 micromolar BzATP
Procedure: Alterations in cell number for HEK-293 cells, HEK-293 cells expressing P2X7-RFL, and HEK-293 cells expressing P2X7-RTR grown in culture were studied. FIG. 15A. The three cells lines were grown in culture and viable cells were counted for a period of 3 days. The data are presented as cell number index versus days in culture. […] For example, a P2X7-RFL receptor protein may facilitate cellular apoptosis (infra).
The cell number of wild-type HEK-293 cells and of HEK-293 cells expressing P2X7-j protein increased to a greater degree than that of HEK-293 cells expressing the P2X7 protein. FIG. 15A.

HEK-293-P2X7 cells = assay: Apoptosis, Cell Death Detection ELISA-PLUS, HEK-293 cells; assay type: cell-based, human; settings: BzATP 50 micromolar
Procedure: Baseline and BzATP-induced apoptosis in MDCK cells and in HEK-293 cells expressing P2X7 and P2X7-j proteins were studied. FIG. 17. […] Cells were treated with BzATP (50 micromolar) to activate the P2X7 receptors. Apoptosis was quantified using Cell Death Detection ELISA-PLUS photometric enzyme-immunoassay that determines cytoplasmic histone-associated-DNA-fragments (mono and oligonucleosomes) after spontaneous or induced cell death (Roche, Cat. No. 1774425, 96 tests). […] Expression of the P2X7-j proteins either had no effect (HEK-293 cells) or may have decreased apoptosis (MDCK cells).

[2] = test system: HEK-293 cells expressing P2X7 or P2X7-j; assay: Cell selection: growth with BzATP and immunoblot of P2X7/P2X7-j protein, HEK-293; assay type: cell-based, human
Procedure: (§1) Growth of various cell lines expressing P2X7 and/or P2X7-j in the presence or absence of BzATP was performed to determine how P2X7 receptors may affect cell selection over time. FIG. 23. HEK-293 cells expressing P2X7, HEK-293 cells expressing P2X7-j, or HeLa cells, which express both P2X7 and P2X7-j were separately grown in culture, in the presence or absence of 50 micromolar BzATP for seven (7) days. At various time points, samples of the cells were taken and examined for expression of P2X7 and/or P2X7-j protein by immunoblotting using a P2X7-specific antibody. This antibody was obtained from Alomone Labs (Jerusalem, Israel) and was reactive with the extracellular domain of P2X7 protein. Amino acids 136-152 of the mouse P2X7 receptor ([…]; (SEQ ID NO:7)) were used as the antigen to prepare the antibody. A labeled secondary antibody was used to visualize reactive protein bands. By layering equal amounts of total protein (15 micrograms) it was possible to compare the relative expression of the P2X7 and/or P2X7-j proteins by the cells.

HeLa cells = assay: Cell selection: growth with BzATP and immunoblot of P2X7/P2X7-j protein, HeLa; assay type: cell-based, human; settings: 50 micromolar BzATP, seven days
Procedure: as §1

[3] = target: T1, P2X7 channel (MDCK cells expressing P2X7 or P2X7-j) (Homo sapiens, UniProt Q99572, R270H/Y155H); assay: BzATP-stimulated channel activation (Fluo-4 calcium), MDCK cells; assay type: cell-based; settings: MDCK-P2X7 cells; 100 micromolar BzATP
T1 construct: expressed in transfected cells; host or cells: MDCK (canine kidney), doxycycline-inducible promoter
T1 sequence (Q99572 whole entry Y155H/R270H): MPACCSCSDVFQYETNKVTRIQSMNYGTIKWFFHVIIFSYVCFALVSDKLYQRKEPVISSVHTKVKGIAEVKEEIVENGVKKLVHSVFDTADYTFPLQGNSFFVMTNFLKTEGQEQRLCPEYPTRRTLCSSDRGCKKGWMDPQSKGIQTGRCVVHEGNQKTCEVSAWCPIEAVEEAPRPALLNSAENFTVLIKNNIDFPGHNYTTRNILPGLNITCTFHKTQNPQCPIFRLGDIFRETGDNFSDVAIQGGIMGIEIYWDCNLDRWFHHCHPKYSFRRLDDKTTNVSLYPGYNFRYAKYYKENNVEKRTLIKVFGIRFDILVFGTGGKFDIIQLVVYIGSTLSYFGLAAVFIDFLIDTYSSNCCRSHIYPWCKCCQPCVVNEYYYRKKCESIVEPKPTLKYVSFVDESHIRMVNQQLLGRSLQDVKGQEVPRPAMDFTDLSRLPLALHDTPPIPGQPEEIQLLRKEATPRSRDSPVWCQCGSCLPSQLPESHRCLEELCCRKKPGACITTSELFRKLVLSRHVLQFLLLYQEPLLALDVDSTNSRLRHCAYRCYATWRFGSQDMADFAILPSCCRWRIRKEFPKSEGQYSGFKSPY
Procedure: (§2) 2′-3′-O-(4-benzoyl-benzoyl)adenosine 5′-triphosphate (BzATP) stimulated channel activation of P2X7 and P2X7-j was determined. FIG. 11. As discussed earlier, activation of P2X7 receptors provides influx of selected cations through the ATP-activated channel provided by the P2X7 protein. MDCK or HEK-293 cells expressing either P2X7 or P2X7-j were loaded with the calcium-sensitive dye Fluo-4 and treated with 100 micromolar of BzATP. Calcium entry into the cells via the P2X7 channel after BzATP activation was measured in terms of changes in Fluo-4 fluorescence.
(§3) A quantification of the changes in cytosolic calcium after BzATP exposure provided data that was similar to that presented in FIG. 11. FIG. 12.

[4] = target: T2, P2X7 channel (MDCK cells expressing P2X7 or P2X7-j) (Homo sapiens, UniProt Q99572, Y155H); assay: as above; assay type: cell-based; settings: MDCK-P2X7-j cells compared to MDCK-P2X7 cells
T2 construct: expressed in transfected cells; host or cells: MDCK (canine kidney), doxycycline-inducible promoter
T2 sequence (Q99572 1-258 isoform Q99572-9 Y155H): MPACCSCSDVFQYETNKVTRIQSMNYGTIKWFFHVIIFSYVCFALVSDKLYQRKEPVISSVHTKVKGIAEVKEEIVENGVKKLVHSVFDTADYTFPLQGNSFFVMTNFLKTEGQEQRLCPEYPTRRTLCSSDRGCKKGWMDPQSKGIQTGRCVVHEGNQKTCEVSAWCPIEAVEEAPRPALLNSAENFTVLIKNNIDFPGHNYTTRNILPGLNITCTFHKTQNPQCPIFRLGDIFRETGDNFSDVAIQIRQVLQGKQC
Procedure: as §2, §3

[5] = target: T3, P2X7-mediated pore (HEK-293 cells expressing P2X7 or P2X7-j) (Homo sapiens, UniProt Q99572, R270H/Y155H); assay type: cell-based; settings: HEK-293-P2X7 cells; BzATP 100 micromolar
T3 construct: expressed in transfected cells; host or cells: HEK-293
T3 sequence (Q99572 whole entry Y155H/R270H): as the sequence (Q99572 whole entry Y155H/R270H) above

[6] = target: T4, P2X7-mediated pore (HEK-293 cells expressing P2X7 or P2X7-j) (Homo sapiens, UniProt Q99572, Y155H); assay type: cell-based; settings: HEK-293-P2X7-j cells compared to HEK-293-P2X7 cells
T4 construct: expressed in transfected cells; host or cells: HEK-293
T4 sequence (Q99572 1-258 isoform Q99572-9 Y155H): as the sequence (Q99572 1-258 isoform Q99572-9 Y155H) above

[7] = test system: P2X7-mediated pore (HEK-293 cells expressing P2X7 or P2X7-j); assay type: cell-based, human; settings: P2X7 plus P2X7-j HEK-293 cells compared to P2X7 HEK-293 cells
CaSki cells = assay: DNA solubilization assay (apoptosis); assay type: cell-based, human
Procedure: Twenty-four hours before the end of the experiment, cells were labeled with [^3H]thymidine (specific activity, 93 Ci/mmol; 5 μCi/1×10^6 cells) for 16 h. The medium was removed, and cells were washed three times with fresh medium lacking [^3H]thymidine and were incubated in the same medium for an additional 6 h. At the end of incubation, the supernatant was stored, and cells were lysed in 0.5 ml lysis buffer (10 mM Tris-HCl, pH 7.5; plus 1 mM EDTA-0.2% Triton X-100) for 1 h at 4° C. The intact chromatin was separated from the fragmented DNA by 5 min centrifugation at 4° C. in Eppendorf microcentrifuge at 12,000×g. The supernatant (lysate) was stored, while the pellet was resuspended in 0.5 ml of 1% sodium dodecyl sulfate (SDS). The radioactivity contained in the supernatants, lysates; and pellets was counted in a scintillation counter, and DNA fragmentation was calculated as: [% Solubilized DNA]=([cpm supernatant+cpm lysates]/[cpm supernatant+cpm lysate+cpm pellet])×100.

Substance: 2′-3′-O-(4-benzoylbenzoyl)adenosine 5′-triphosphate [BzATP]
- growth of cells (cell number) ([1]; HEK-293-P2X7-j cells): no significant effect
- growth of cells (cell number) ([1]; HEK-293-P2X7 cells): significantly decreased further the growth
- growth of cells (cell number) ([1]; wild-type HEK-293 cells): no significant effect
- apoptosis (HEK-293-P2X7 cells): further increased this baseline apoptosis
- expression of the P2X7-j protein ([2]; HEK-293 cells expressing P2X7-j, continuous 50 micromolar BzATP): did not decrease the expression of the P2X7-j protein
- expression of the P2X7 protein ([2]; HEK-293 cells expressing P2X7, 50 micromolar BzATP, each day up to 7 days): less than in cells not treated with BzATP
- expression of P2X7 protein (HeLa cells): significantly decreased
- expression of the P2X7-j protein (HeLa cells): remained stable
- Fluo-4 signal (cytosolic calcium) [3]: increased acutely the Fluo-4 signal
- calcium response to BzATP [4]: significantly smaller
- ethidium bromide signaling (pore) [5]: increased ethidium bromide signaling
- ethidium bromide signaling response to BzATP [6]: significantly smaller
- ethidium bromide response to BzATP [7]: significantly smaller
- DNA solubilization (CaSki cells; 100 μM BzATP for 9 h, baseline 1.9%): 7.8%
- DNA solubilization (CaSki cells; 100 μM BzATP for 9 h or 10 μM TNFα for 14 h): significantly increased DNA solubilization
